Target: T1, AtSUT4 (Arabidopsis thaliana, UniProt Q9FE59)
T1 sequence (Q9FE59 1-510): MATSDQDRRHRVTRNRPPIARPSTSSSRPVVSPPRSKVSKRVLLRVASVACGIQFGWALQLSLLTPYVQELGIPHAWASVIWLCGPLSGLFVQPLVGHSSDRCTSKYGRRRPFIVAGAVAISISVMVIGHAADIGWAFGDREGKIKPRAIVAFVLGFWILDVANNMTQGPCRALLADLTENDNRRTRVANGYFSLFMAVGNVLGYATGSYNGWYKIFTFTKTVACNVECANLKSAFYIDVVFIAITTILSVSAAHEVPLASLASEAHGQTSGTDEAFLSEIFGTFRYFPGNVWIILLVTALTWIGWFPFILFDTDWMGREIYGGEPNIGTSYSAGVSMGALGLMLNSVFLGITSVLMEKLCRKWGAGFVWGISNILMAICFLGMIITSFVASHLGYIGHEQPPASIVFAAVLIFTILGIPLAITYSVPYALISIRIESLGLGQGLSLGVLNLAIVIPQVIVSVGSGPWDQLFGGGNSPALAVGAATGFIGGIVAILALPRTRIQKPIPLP
Experiment: inhibition of ^[…]-sucrose uptake in yeast expressing AtSUT4
Type: cell-based
Conditions: 3 mM ^14C-sucrose; competing non-labeled sugar at 9 mM

Q: With `OC[C@H]1O[C@@H](O[C@H]2[C@H](O)[C@@H](O)C(O)O[C@@H]2CO)[C@H](O)[C@@H](O)[C@H]1O` (some centres unmarked) [lactose] as the compound, how does the “% inhibition at 9 mM” value read?
A: Its value is “uptake of sucrose by AtSUT4 was inhibited by rutinose, maltose and lactose”.

Q: Which “% inhibition at 9 mM” value does the source give for `OC[C@H]1O[C@H](O[C@H]2[C@H](O)[C@@H](O)C(O)O[C@@H]2CO)[C@H](O)[C@@H](O)[C@@H]1O` (some centres unmarked) [maltose] here?
A: The value was “uptake of sucrose by AtSUT4 was inhibited by rutinose, maltose and lactose”.
